From US20230322788A1, “IMIDAZOTRIAZINE AND PYRROLOPYRIMIDINE DERIVATIVES AS KRAS G12C INHIBITORS” (BeiGene, Ltd., priority 2020, published 2023)

These compounds were tested against KRAS (aa 1-169) G12C, C51S, C80L, C118S (Homo sapiens (Human), UniProt P01116, C118S/C51S/C80L/G12C) (assay: KRAS G12C SOS1-mediated nucleotide exchange / cRaf RBD binding FRET assay (Biochemical Functional Assay)). Settings: GDP-loaded KRAS G12C pre-incubated with compound at 24° C. for 3 hrs; SOS1, GTPγS, GST-cRaf RBD; inhibition of nucleotide exchange.
Protocol: The KRAS ([…]) G12C, C51S, C80L, C118S with a His-tag was expressed, purified and loaded with GDP in house. All protein and substrate solutions were prepared in assay buffer containing 25 mM HEPES pH7.5, 10 mM MgCl2, and 0.01% Triton X-100. Purified GDP-loaded KRAS (aa 1-169) G12C, C51S, C80L, C118S protein was pre-incubated with a serially diluted compound at 24° C. for 3 hrs. Purified SOS1 (aa 564-1049) protein, GTPYS (Sigma) and GST-cRaf RBD (aa 1-149) were then added to each well and incubated at 24° C. for additional 3 hrs. […] Following the incubation, Mab Anti-6HIS-Tb cryptate (Cisbio) and Mab Anti GST-XL665 (Cisbio) were added and further incubated at 24° C. for 3 hrs. The binding interaction between active GTPγS KRAS G12C and GST-cRaf RBD brings the Tb and XL665 into close proximity enabling an increased FRET signal (Ex337 nm, Em665 nm/620 nm). The inhibition percentage of nucleotide exchange reaction in presence of increasing concentrations of compounds was calculated based on the ratio of fluorescence at 665 nm to that at 620 nm detected on a BMG PHERAstar FSX instrument. The IC50 value of each compound was calculated from fitting the data to the four-parameter logistic model by Dotmatics.

Sequence of KRAS (aa 1-169) G12C, C51S, C80L, C118S (P01116 other isoform, or with tags, fused parts or gaps G12C/C51S/C80L/C118S): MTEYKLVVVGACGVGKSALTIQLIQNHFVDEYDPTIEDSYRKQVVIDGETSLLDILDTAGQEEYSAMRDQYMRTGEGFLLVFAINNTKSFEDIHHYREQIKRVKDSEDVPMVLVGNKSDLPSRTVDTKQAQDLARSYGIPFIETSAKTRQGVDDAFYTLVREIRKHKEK

SMILES	IC50 [µM]
C=C(F)C(=O)N1CCN(c2nc(OC[C@@H]3CCCN3C)nc3c(Cc4c(Cl)c(F)cc5[nH]ncc45)c[nH]c23)C[C@@H]1CC#N [Compound B6, 2-((S)-4-(7-((5-chloro-6-fluoro-1H-indazol-4-yl)methyl)-2-(((S)-1-methylpyrrolidin-2-yl)methoxy)-5H-pyrrolo[3,2-d]pyrimidin-4-yl)-1-(2-fluoroacryloyl)piperazin-2-yl)acetonitrile]	0.639
C=CC(=O)N1CCN(c2nc(OC[C@@H]3CCCN3C)nn3c(Cc4ccc5ccccc5c4)cnc23)C[C@@H]1CC#N [Compound A8, 2-((S)-1-acryloyl-4-(2-(((S)-1-methylpyrrolidin-2-yl)methoxy)-7-(naphthalen-2-ylmethyl)imidazo[2,1-f][1,2,4]triazin-4-yl)piperazin-2-yl)acetonitrile]	7.7
C=CC(=O)N1CCN(c2nc(OC[C@@H]3CCCN3C)nn3c(Cc4c(F)cccc4Cl)cnc23)C[C@@H]1CC#N [Compound A11, 2-((S)-1-acryloyl-4-(7-(2-chloro-6-fluorobenzyl)-2-(((S)-1-methylpyrrolidin-2-yl)methoxy)imidazo[2,1-f][1,2,4]triazin-4-yl)piperazin-2-yl)acetonitrile]	0.215
C=CC(=O)N1CCN(c2nc(OC[C@@H]3CCCN3C)nn3c(Cc4cccc5[nH]ncc45)cnc23)C[C@@H]1CC#N [Compound A15, 2-((S)-4-(7-((1H-indazol-4-yl)methyl)-2-(((S)-1-methylpyrrolidin-2-yl)methoxy)imidazo[2,1-f][1,2,4]triazin-4-yl)-1-acryloylpiperazin-2-yl)acetonitrile]	1.18
C=CC(=O)N1CCN(c2nc(OC[C@@H]3CCCN3C)nn3c(Cc4ccccc4Cl)cnc23)C[C@@H]1CC#N [Compound A12, 2-((S)-1-acryloyl-4-(7-(2-chlorobenzyl)-2-(((S)-1-methylpyrrolidin-2-yl)methoxy)imidazo[2,1-f][1,2,4]triazin-4-yl)piperazin-2-yl)acetonitrile]	0.217
C=CC(=O)N1CCN(c2nc(OC[C@@H]3CCCN3C)nn3c(Cc4c(O)ccc5ccccc45)cnc23)C[C@@H]1CC#N [Compound A21, 2-((S)-1-acryloyl-4-(7-((2-hydroxynaphthalen-1-yl)methyl)-2-(((S)-1-methylpyrrolidin-2-yl)methoxy)imidazo[2,1-f][1,2,4]triazin-4-yl)piperazin-2-yl)acetonitrile]	0.0208
C=CC(=O)N1CCN(c2nc(OC[C@@H]3CCCN3C)nn3c(Cc4cccc5cccc(Cl)c45)cnc23)C[C@@H]1CC#N [Compound A6, 2-((S)-1-acryloyl-4-(7-((8-chloronaphthalen-1-yl)methyl)-2-(((S)-1-methylpyrrolidin-2-yl)methoxy)imidazo[2,1-f][1,2,4]triazin-4-yl)piperazin-2-yl)acetonitrile]	0.1
C=CC(=O)N1CCN(c2nc(OC[C@@H]3CCCN3C)nn3c(C4CCc5ccccc54)cnc23)C[C@@H]1CC#N (stereo partly drawn) [Compound A22, 2-((2S)-1-acryloyl-4-(7-(2,3-dihydro-1H-inden-1-yl)-2-(((S)-1-methylpyrrolidin-2-yl)methoxy)imidazo[2,1-f][1,2,4]triazin-4-yl)piperazin-2-yl)acetonitrile]	0.201
C=CC(=O)N1CCN(c2nc(OC[C@@H]3CCCN3C)nn3c(Cc4ccc(O)c5ccccc45)cnc23)C[C@@H]1CC#N [Compound A19, 2-((S)-1-acryloyl-4-(7-((4-hydroxynaphthalen-1-yl)methyl)-2-(((S)-1-methylpyrrolidin-2-yl)methoxy)imidazo[2,1-f][1,2,4]triazin-4-yl)piperazin-2-yl)acetonitrile]	0.0096
C=CC(=O)N1CCN(c2nc(OC[C@@H]3CCCN3C)nn3c(Cc4ccccc4C(F)(F)F)cnc23)C[C@@H]1CC#N [Compound A18, 2-((S)-1-acryloyl-4-(2-(((S)-1-methylpyrrolidin-2-yl)methoxy)-7-(2-(trifluoromethyl)benzyl)imidazo[2,1-f][1,2,4]triazin-4-yl)piperazin-2-yl)acetonitrile]	0.235
C=CC(=O)N1CCN(c2nc(OC[C@@H]3CCCN3C)nn3c(Cc4cccc5ccccc45)cnc23)CC1 [Compound A1, (S)-1-(4-(2-((1-methylpyrrolidin-2-yl)methoxy)-7-(naphthalen-1-ylmethyl)imidazo[2,1-f][1,2,4]triazin-4-yl)piperazin-1-yl)prop-2-en-1-one]	3.28
C=CC(=O)N1CCN(c2nc(OC[C@@H]3CCCN3C)nn3c(Cc4c(O)cccc4F)cnc23)C[C@@H]1CC#N [Compound A20, 2-((S)-1-acryloyl-4-(7-(2-fluoro-6-hydroxybenzyl)-2-(((S)-1-methylpyrrolidin-2-yl)methoxy)imidazo[2,1-f][1,2,4]triazin-4-yl)piperazin-2-yl)acetonitrile]	0.0191
C=CC(=O)N1CCN(c2nc(OC[C@@H]3C[C@@H](F)CN3C)nc3c(Cc4cc(O)cc5ccccc45)cn(C)c23)C[C@@H]1CC#N [Compound B3, 2-((S)-1-acryloyl-4-(2-(((2S,4R)-4-fluoro-1-methylpyrrolidin-2-yl)methoxy)-7-((3-hydroxynaphthalen-1-yl)methyl)-5-methyl-5H-pyrrolo[3,2-d]pyrimidin-4-yl)piperazin-2-yl)acetonitrile]	0.0203
C=CC(=O)N1CCN(c2nc(OC[C@@H]3CCCN3C)nn3c(Cc4cccc5c4CCO5)cnc23)C[C@@H]1CC#N [Compound A9, 2-((S)-1-acryloyl-4-(7-((2,3-dihydrobenzofuran-4-yl)methyl)-2-(((S)-1-methylpyrrolidin-2-yl)methoxy)imidazo[2,1-f][1,2,4]triazin-4-yl)piperazin-2-yl)acetonitrile]	1.06
C=CC(=O)N1CCN(c2nc(OC[C@@H]3CCCN3C)nn3c(Cc4cccc5ccccc45)cnc23)[C@@H](C)C1 [Compound A17, 1-((S)-3-methyl-4-(2-(((S)-1-methylpyrrolidin-2-yl)methoxy)-7-(naphthalen-1-ylmethyl)imidazo[2,1-f][1,2,4]triazin-4-yl)piperazin-1-yl)prop-2-en-1-one]	2.93
C=CC(=O)N1CCN(c2nc(OC[C@@H]3CCCN3C)nn3c(Cc4ccc(OC)c5ccccc45)cnc23)C[C@@H]1CC#N [Compound A10, 2-((S)-1-acryloyl-4-(7-((4-methoxynaphthalen-1-yl)methyl)-2-(((S)-1-methylpyrrolidin-2-yl)methoxy)imidazo[2,1-f][1,2,4]triazin-4-yl)piperazin-2-yl)acetonitrile]	0.187
C=CC(=O)N1CCN(c2nc(OC[C@@H]3CCCN3C)nn3c(Cc4cccc5c4OCC5)cnc23)C[C@@H]1CC#N [Compound A13, 2-((S)-1-acryloyl-4-(7-((2,3-dihydrobenzofuran-7-yl)methyl)-2-(((S)-1-methylpyrrolidin-2-yl)methoxy)imidazo[2,1-f][1,2,4]triazin-4-yl)piperazin-2-yl)acetonitrile]	0.101
C=CC(=O)N1CCN(c2nc(OC[C@@H]3CCCN3C)nn3c(Cc4cccc5cccc(C)c45)cnc23)C[C@@H]1CC#N [Compound A7, 2-((S)-1-acryloyl-4-(7-((8-methylnaphthalen-1-yl)methyl)-2-(((S)-1-methylpyrrolidin-2-yl)methoxy)imidazo[2,1-f][1,2,4]triazin-4-yl)piperazin-2-yl)acetonitrile]	0.0478
C=CC(=O)N1CCN(c2nc(OC[C@@H]3CCCN3C)nc3c(Cc4cc(O)cc5ccccc45)cn(C)c23)C[C@@H]1CC#N [Compound B1, 2-((S)-1-acryloyl-4-(7-((3-hydroxynaphthalen-1-yl)methyl)-5-methyl-2-(((S)-1-methylpyrrolidin-2-yl)methoxy)-5H-pyrrolo[3,2-d]pyrimidin-4-yl)piperazin-2-yl)acetonitrile]	0.0062
C=CC(=O)N1CCN(c2nc(OC[C@@H]3CCCN3C)nn3c(Cc4cccc5ccccc45)cnc23)C[C@@H]1CC#N [Compound A4, 2-((S)-1-acryloyl-4-(2-(((S)-1-methylpyrrolidin-2-yl)methoxy)-7-(naphthalen-1-ylmethyl)imidazo[2,1-f][1,2,4]triazin-4-yl)piperazin-2-yl)acetonitrile]	0.0467
C=CC(=O)N1CCN(c2nc(OC[C@@H]3CCCN3C)nn3c(C(=O)c4cccc5ccccc45)cnc23)C[C@@H]1CC#N [Compound A23, 2-((S)-4-(7-(1-naphthoyl)-2-(((S)-1-methylpyrrolidin-2-yl)methoxy)imidazo[2,1-f][1,2,4]triazin-4-yl)-1-acryloylpiperazin-2-yl)acetonitrile]	0.489

Same assay, conditions: same assay; the cell prints uM although the column head says nmol

SMILES	IC50 [µM]
C=CC(=O)N1CCN(c2nc(OC[C@@H]3CCCN3C)nn3c(-c4cc(OC)cc5ccccc45)cnc23)C[C@@H]1CC#N [Compound A3, 2-((S)-1-acryloyl-4-(7-(3-methoxynaphthalen-1-yl)-2-(((S)-1-methylpyrrolidin-2-yl)methoxy)imidazo[2,1-f][1,2,4]triazin-4-yl)piperazin-2-yl)acetonitrile]	> 10
